Inconclusive results and toxic doses are left out.
Test system: BDF1 mice, B16 melanoma ip, median survival T/C
Assay: NCI In Vivo Anticancer Drug Screen. Data for tumor model B16 Melanoma (intraperitoneal) in B6D2F1 (BDF1) mice
Conditions: endpoint: median survival time, higher = longer survival
Procedure, shortened: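 Mice with transplantable tumors; drug vs vehicle groups; endpoint survival or tumor size; value = T/C.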

[1] = dose: 12.5 mg/kg/injection, schedule: Q01DX009 (ip), vehicle: Klucel (hydroxypropylcellulose) (HPC)
[2] = dose: 25.0 mg/kg/injection, schedule: Q01DX009 (ip), vehicle: Klucel (hydroxypropylcellulose) (HPC)
[3] = dose: 50.0 mg/kg/injection, schedule: Q01DX009 (ip), vehicle: Klucel (hydroxypropylcellulose) (HPC)
[4] = dose: 100.0 mg/kg/injection, schedule: Q01DX009 (ip), vehicle: Klucel (hydroxypropylcellulose) (HPC)
[5] = dose: 3.12 mg/kg/injection, schedule: Q01DX009 (ip), vehicle: Klucel (hydroxypropylcellulose) (HPC)
[6] = dose: 6.25 mg/kg/injection, schedule: Q01DX009 (ip), vehicle: Klucel (hydroxypropylcellulose) (HPC)
[7] = dose: 200.0 mg/kg/injection, schedule: Q01DX009 (ip), vehicle: Klucel (hydroxypropylcellulose) (HPC)
[8] = dose: 400.0 mg/kg/injection, schedule: Q01DX009 (ip), vehicle: Klucel (hydroxypropylcellulose) (HPC)

S=c1nc[nH]c2nc[nH]c12
T/C (dose: 2.5 mg/kg/injection, schedule: Q01DX009 (ip), vehicle: other): 120 % of control | T/C (dose: 2.5 mg/kg/injection, schedule: Q01DX009 (ip), vehicle: saline): 107 % of control | T/C (dose: 5.0 mg/kg/injection, schedule: Q01DX009 (ip), vehicle: other): 112 % of control | T/C (dose: 5.0 mg/kg/injection, schedule: Q01DX009 (ip), vehicle: saline): 110 % of control | T/C (dose: 7.5 mg/kg/injection, schedule: Q01DX009 (ip), vehicle: Klucel (hydroxypropylcellulose) (HPC)): 93 % of control | T/C (dose: 9.38 mg/kg/injection, schedule: Q01DX009 (ip), vehicle: alkali diluted with water): 94 % of control | T/C (dose: 10.0 mg/kg/injection, schedule: Q01DX009 (ip), vehicle: saline): 110 % of control | T/C (dose: 11.3 mg/kg/injection, schedule: Q01DX009 (ip), vehicle: other): 90 % of control | T/C [1]: 110 % of control | T/C (dose: 18.8 mg/kg/injection, schedule: Q01DX009 (ip), vehicle: alkali diluted with water): 100 % of control | T/C (dose: 20.0 mg/kg/injection, schedule: Q01DX009 (ip), vehicle: saline): 160 % of control | T/C (dose: 22.5 mg/kg/injection, schedule: Q01DX009 (ip), vehicle: other): 95 % of control | T/C (dose: 25.0 mg/kg/injection, schedule: Q01DX009 (ip), vehicle: acid diluted with saline): 87 % of control | T/C (dose: 30.0 mg/kg/injection, schedule: Q01DX009 (ip), vehicle: saline): 105 % of control | T/C (dose: 37.5 mg/kg/injection, schedule: Q01DX009 (ip), vehicle: alkali diluted with water): 88 % of control | T/C (dose: 40.0 mg/kg/injection, schedule: Q01DX009 (ip), vehicle: saline): 110 % of control | T/C (dose: 75.0 mg/kg/injection, schedule: Q01DX009 (ip), vehicle: alkali diluted with water): 84 % of control | T/C (dose: 78.0 mg/kg/injection, schedule: Q04DX003 (ip), vehicle: alkali diluted with water): 96 % of control | T/C (dose: 120.0 mg/kg/injection, schedule: Q04DX003 (ip), vehicle: alkali diluted with water): 98 % of control | T/C (dose: 150.0 mg/kg/injection, schedule: Q01DX009 (ip), vehicle: alkali diluted with water): 46 % of control | T/C (dose: 200.0 mg/kg/injection, schedule: Q04DX003 (ip), vehicle: alkali diluted with water): 84 % of control | T/C (dose: 333.0 mg/kg/injection, schedule: Q04DX003 (ip), vehicle: alkali diluted with water): 81 % of control

C=C1CCN(c2ccccc2Cl)C1=O
T/C (dose: 4.0 mg/kg/injection, schedule: Q01DX009 (ip), vehicle: saline + alcohol): 104 % of control | T/C (dose: 8.0 mg/kg/injection, schedule: Q01DX009 (ip), vehicle: saline + alcohol): 98 % of control | T/C (dose: 16.0 mg/kg/injection, schedule: Q01DX009 (ip), vehicle: saline + alcohol): 101 % of control | T/C (dose: 32.0 mg/kg/injection, schedule: Q01DX009 (ip), vehicle: saline + alcohol): 121 % of control

Cc1cccc(NC(=O)Nc2ccccc2Cl)c1C
T/C [2]: 101 % of control | T/C [3]: 101 % of control | T/C [4]: 101 % of control

CC(=O)C(=O)C1=C2CCCN2CCc2cc3c(cc21)OCO3
T/C (dose: 12.5 mg/kg/injection, schedule: Q01DX009 (ip), vehicle: water): 93 % of control | T/C (dose: 25.0 mg/kg/injection, schedule: Q01DX009 (ip), vehicle: water): 98 % of control | T/C (dose: 50.0 mg/kg/injection, schedule: Q01DX009 (ip), vehicle: water): 117 % of control | T/C (dose: 100.0 mg/kg/injection, schedule: Q01DX009 (ip), vehicle: water): 89 % of control

[Br][Ga]([Br])[Br]
T/C (dose: 12.5 mg/kg/injection, schedule: Q01DX009 (ip), vehicle: saline): 101 % of control | T/C (dose: 25.0 mg/kg/injection, schedule: Q01DX009 (ip), vehicle: saline): 96 % of control | T/C (dose: 50.0 mg/kg/injection, schedule: Q01DX009 (ip), vehicle: saline): 96 % of control

C=CC(CO)N1CC1 (configuration not stated)
T/C (dose: 1.0 mg/kg/injection, schedule: Q01DX009 (ip), vehicle: other): 119 % of control | T/C (dose: 2.0 mg/kg/injection, schedule: Q01DX009 (ip), vehicle: other): 116 % of control | T/C (dose: 4.0 mg/kg/injection, schedule: Q01DX009 (ip), vehicle: other): 111 % of control | T/C (dose: 6.25 mg/kg/injection, schedule: Q04DX003 (ip), vehicle: other): 100 % of control | T/C (dose: 8.0 mg/kg/injection, schedule: Q01DX009 (ip), vehicle: other): 113 % of control | T/C (dose: 12.5 mg/kg/injection, schedule: Q04DX003 (ip), vehicle: other): 100 % of control | T/C (dose: 25.0 mg/kg/injection, schedule: Q04DX003 (ip), vehicle: other): 96 % of control | T/C (dose: 50.0 mg/kg/injection, schedule: Q04DX003 (ip), vehicle: other): 109 % of control

Clc1ccc(C[P+](c2ccccc2)(c2ccccc2)c2ccccc2)cc1Cl
T/C [5]: 103 % of control | T/C [6]: 101 % of control | T/C [1]: 107 % of control

CCO/C=C1\SC(=S)N(c2cccc(O)c2)C1=O
T/C [2]: 102 % of control | T/C [3]: 102 % of control | T/C [4]: 101 % of control

CS/C([S-])=N/[NH-].CS/C([S-])=N/[NH-].[Pd]
T/C (dose: 3.13 mg/kg/injection, schedule: Q01DX009 (ip), vehicle: saline with Tween-80): 98 % of control | T/C (dose: 6.25 mg/kg/injection, schedule: Q01DX009 (ip), vehicle: saline with Tween-80): 101 % of control | T/C (dose: 12.5 mg/kg/injection, schedule: Q01DX009 (ip), vehicle: saline with Tween-80): 99 % of control

CC(C)c1ccc(C2CCCCC2O)cc1 (configuration not stated)
T/C (dose: 50.0 mg/kg/injection, schedule: Q01DX009 (ip), vehicle: saline with Tween-80): 94 % of control | T/C (dose: 100.0 mg/kg/injection, schedule: Q01DX009 (ip), vehicle: saline with Tween-80): 88 % of control

Cc1cc(=O)[nH]c(N/N=C/c2ccccc2O)n1
T/C [2]: 93 % of control | T/C [3]: 87 % of control | T/C [4]: 87 % of control | T/C [7]: 87 % of control

O=P(NC12CC3CC(CC(C3)C1)C2)(N1CC1)N1CC1
T/C (dose: 4.4 mg/kg/injection, schedule: Q01DX009 (ip), vehicle: Klucel (hydroxypropylcellulose) (HPC)): 100 % of control | T/C (dose: 6.6 mg/kg/injection, schedule: Q01DX009 (ip), vehicle: Klucel (hydroxypropylcellulose) (HPC)): 110 % of control

O=CNC(c1ccccc1)(c1ccccc1)c1ccccc1
T/C [4]: 97 % of control | T/C [7]: 94 % of control | T/C [8]: 94 % of control

CCOC(=O)CC1=CCCCC1
T/C (dose: 70.0 mg/kg/injection, schedule: Q01DX009 (ip), vehicle: Klucel (hydroxypropylcellulose) (HPC)): 100 % of control | T/C (dose: 140.0 mg/kg/injection, schedule: Q01DX009 (ip), vehicle: Klucel (hydroxypropylcellulose) (HPC)): 106 % of control | T/C (dose: 280.0 mg/kg/injection, schedule: Q01DX009 (ip), vehicle: Klucel (hydroxypropylcellulose) (HPC)): 100 % of control

O=C(/C(=C\c1ccccc1)CBr)c1ccccc1
T/C (dose: 0.12 mg/kg/injection, schedule: Q01DX009 (ip), vehicle: Klucel (hydroxypropylcellulose) (HPC)): 101 % of control | T/C (dose: 0.25 mg/kg/injection, schedule: Q01DX009 (ip), vehicle: Klucel (hydroxypropylcellulose) (HPC)): 88 % of control | T/C (dose: 0.5 mg/kg/injection, schedule: Q01DX009 (ip), vehicle: Klucel (hydroxypropylcellulose) (HPC)): 88 % of control

COC1(OC)C2(Cl)C(Cl)=C(Cl)C1(Cl)C1C(=O)C=CC(=O)C12 (configuration not stated)
T/C (dose: 1.56 mg/kg/injection, schedule: Q01DX009 (ip), vehicle: Klucel (hydroxypropylcellulose) (HPC)): 91 % of control | T/C [5]: 90 % of control | T/C [6]: 90 % of control | T/C [1]: 90 % of control | T/C [2]: 91 % of control | T/C [8]: 88 % of control

CCC1(CC)OC2=C(CC(C#N)(C#N)C(C#N)(C#N)C2)O1
T/C (dose: 2.5 mg/kg/injection, schedule: Q04DX003 (ip), vehicle: Klucel (hydroxypropylcellulose) (HPC)): 96 % of control | T/C (dose: 3.12 mg/kg/injection, schedule: Q04DX003 (ip), vehicle: Klucel (hydroxypropylcellulose) (HPC)): 100 % of control | T/C (dose: 4.0 mg/kg/injection, schedule: Q04DX003 (ip), vehicle: Klucel (hydroxypropylcellulose) (HPC)): 98 % of control | T/C (dose: 9.5 mg/kg/injection, schedule: Q04DX003 (ip), vehicle: Klucel (hydroxypropylcellulose) (HPC)): 96 % of control | T/C (dose: 12.5 mg/kg/injection, schedule: Q04DX003 (ip), vehicle: Klucel (hydroxypropylcellulose) (HPC)): 88 % of control

CCCCC(=O)N(c1ccc(Nc2c3ccccc3nc3cc([N+](=O)[O-])ccc23)cc1)S(C)(=O)=O
T/C (dose: 3.8 mg/kg/injection, schedule: Q01DX009 (ip), vehicle: saline with Tween-80): 102 % of control | T/C (dose: 12.5 mg/kg/injection, schedule: Q01DX001 (ip), vehicle: saline with Tween-80): 122 % of control | T/C (dose: 15.0 mg/kg/injection, schedule: Q01DX009 (ip), vehicle: saline with Tween-80): 120 % of control

CCN(CC)CCSC(CO)c1ccccc1 (configuration not stated)
T/C [2]: 103 % of control | T/C [3]: 96 % of control | T/C [4]: 93 % of control

From PubChem BioAssay AID192 (DTP/NCI, 2004)
